Measurements from PubChem BioAssay AID1963871 (Molecular Pharmacology Branch, DTP, NCI, 2024).

System: KRAS-mutant PDC multicell tumor spheroid viability
Test: Anticancer human tumor 521955-158-R2-J5-PDC patient-derived pancreatic carcinoma cell line growth inhibition [KRAS2]
Conditions: for IC50: curve of first compound; for viability, T/C: stronger effect = lower value
From the text: Multicellular complex tumor spheroid response to RAS pathway inhibitors in combination with a targeted agents in patient-derived cell lines with oncogenic KRAS variants from multiple cancer types
A high-throughput screen of multi-cell type tumor spheroids was designed to identify active combinations of targeted small molecules and KRAS pathway inhibitors. Complex spheroids include a stromal component modeled by human endothelial cells (HUVEC) and fibroblasts modeled by human mesenchymal stem cells (MSCs). The concentration ranges selected for each drug and investigational agent were based upon clinically achievable concentrations if the clinical Cmax of the agent was known.
Compounds. The drugs and investigational agents: BI-3406 (NSC825286), BAY-293 (NSC824723), batoprotafib (TNO155; NSC825523), sotorasib (AMG 510; NSC818433), MRTX1257 (NSC819558), elimusertib (BAY 1895344; NSC800525), molibresib (GSK525762; NSC774829), temuterkib (LY3214996; NSC803410), venetoclax (NSC766270), alisertib (NSC759677), olaparib (NSC753686), talazoparib (NSC767125), erdafitinib (NSC781556), ipatasertib (NSC767898), cabozantinib (NSC761068), nintedanib (NSC756659), abemaciclib (NSC768073), docetaxel (NSC628503), trametinib (NSC758246), and sapanisertib (NSC764658) were obtained from the National Cancer Institute (NCI) Developmental Therapeutics Program Chemical Repository. The FDA-approved anticancer drug set is available from the Developmental Therapeutics Program. […] The stock solutions were prepared in dimethyl sulfoxide (DMSO, Sigma-Aldrich, St. Louis, MO, cat. D2650) at 800-fold the tested concentration and stored at -70 degrees C prior to their use. All drugs and investigational agents were tested over a range starting from a high concentration at or near the clinical Cmax and decreasing in half-log increments. If the clinical Cmax for an agent had not been determined, the highest concentration tested was 10 microM.
Cell Culture. All cells were maintained in an incubator at 37 degrees C and 5% CO2 with 95% humidity. The PDC lines were cultured according to standard operating procedures established by the NCI PDMR (https://pdmr.cancer.gov/sops/default.htm). Briefly, all PDCs were thawed and cultured in Matrigel-coated flasks prepared with a working solution of 1X Ham's F-12 nutrient mix, without supplementation (Invitrogen, Waltham, MA, cat. 11765054), 100 U/mL penicillin-streptomycin (Invitrogen, cat. 15140122), and 2.5% Matrigel (Corning Inc., Corning, NY, cat. 354248) for the first three passages. All PDCs were cultured in complete DMEM/F-12 media containing advanced DMEM/F-12 (Invitrogen, cat. 12634028), 4.9% defined fetal bovine serum, heat inactivated (HyClone Laboratories Inc., Logan, UT, cat. SH30070.03HI), 389 ng/mL hydrocortisone (Sigma-Aldrich, cat. H4001), 9.7 ng/mL human EGF recombinant protein (Invitrogen, cat. PHG0313), 23.4 microg/mL adenine (Sigma-Aldrich, cat. A2786), 97.3 U/mL penicillin-streptomycin (Invitrogen, cat. 15140122), 1.9 mM L-glutamine (Invitrogen, cat. 25030081), and 9.7 microM Y-27632 dihydrochloride (Tocris Bioscience, Bristol, United Kingdom, cat. 1254). The PDCs were cultured in complete DMEM/F12 media without 9.7 microM Y-27632 dihydrochloride for at least two passages prior to the screen. The established cell line HOP-62 was cultured in RPMI 1640 medium, HEPES (Invitrogen, cat. 22400105) with 10% defined fetal bovine serum (HyClone Laboratories Inc., cat. SH30070.03) and 2 mM L-glutamine (Invitrogen, cat. 25030081). The pooled donor HUVEC were cultured in endothelial cell growth medium 2 (PromoCell, Heidelberg, Germany, cat. C-22011) and the hMSC were cultured in mesenchymal stem cell growth medium 2 (PromoCell, cat. C-28009). For all experiments, HUVEC and hMSC were used at passages </=5, while the malignant cell lines were used at passages </=15. […]

[1] = second compound 0.0316 µM, first compound 0.01 µM
[2] = second compound 0.0316 µM, first compound 0.0316 µM
[3] = second compound 0.0316 µM, first compound 0.1 µM
[4] = second compound 0.1 µM, first compound 0.01 µM
[5] = second compound 0.1 µM, first compound 0.0316 µM
[6] = second compound 0.1 µM, first compound 0.1 µM
[7] = second compound 0.1 µM, first compound 0.316 µM
[8] = second compound 0.1 µM, first compound 1 µM
[9] = second compound 0.1 µM, first compound 3.16 µM
[10] = second compound 0.316 µM, first compound 0.01 µM
[11] = second compound 0.316 µM, first compound 0.0316 µM
[12] = second compound 0.316 µM, first compound 0.1 µM
[13] = second compound 0.316 µM, first compound 0.316 µM
[14] = second compound 0.316 µM, first compound 1 µM
[15] = second compound 0.316 µM, first compound 3.16 µM
[16] = second compound 1 µM, first compound 0.01 µM
[17] = second compound 1 µM, first compound 0.0316 µM
[18] = second compound 1 µM, first compound 0.1 µM
[19] = second compound 1 µM, first compound 0.316 µM
[20] = second compound 1 µM, first compound 1 µM
[21] = second compound 1 µM, first compound 3.16 µM
[22] = second compound 3.16 µM, first compound 0.01 µM
[23] = second compound 3.16 µM, first compound 0.0316 µM
[24] = second compound 3.16 µM, first compound 0.1 µM
[25] = second compound 3.16 µM, first compound 0.316 µM
[26] = second compound 3.16 µM, first compound 1 µM
[27] = second compound 3.16 µM, first compound 3.16 µM
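Also: viability read after seven days of drug exposure.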

## CC1COCCN1c1cc(-c2ccnn2C)c2ccnc(-c3ccn[nH]3)c2n1 (stereo not given) + C=CC(=O)N1CCN(c2nc(OCC3CCCN3C)nc3c2CCN(c2cccc4cccc(C)c24)C3)CC1CC#N
Second compound 0.0316 µM
  IC50: 30.6 nM
Second compound 0.1 µM
  IC50: 29.6 nM
Second compound 0.316 µM
  IC50: 22.9 nM
Second compound 1 µM
  IC50: 17 nM
Second compound 3.16 µM
  IC50: < 10 nM
[1]
  viability, T/C: 95.8%
[2]
  viability, T/C: 48.6%
[3]
  viability, T/C: 10.9%
Second compound 0.0316 µM, first compound 0.316 µM
  viability, T/C: 13.4%
Second compound 0.0316 µM, first compound 1 µM
  viability, T/C: 21.8%
Second compound 0.0316 µM, first compound 3.16 µM
  viability, T/C: 27.5%
[4]
  viability, T/C: 109%
[5]
  viability, T/C: 46.4%
[6]
  viability, T/C: 9.45%
[7]
  viability, T/C: 13.1%
[8]
  viability, T/C: 21.9%
[9]
  viability, T/C: 26.9%
[10]
  viability, T/C: 96%
[11]
  viability, T/C: 32%
[12]
  viability, T/C: 7.93%
[13]
  viability, T/C: 11.4%
[14]
  viability, T/C: 19.9%
[15]
  viability, T/C: 27.3%
[16]
  viability, T/C: 77.8%
[17]
  viability, T/C: 17.8%
[18]
  viability, T/C: 5.2%
[19]
  viability, T/C: 9.79%
[20]
  viability, T/C: 17.1%
[21]
  viability, T/C: 21.1%
[22]
  viability, T/C: 10.7%
[23]
  viability, T/C: 6.36%
[24]
  viability, T/C: 4.26%
[25]
  viability, T/C: 6.86%
[26]
  viability, T/C: 11%
[27]
  viability, T/C: 15.3%

## Cn1ncnc1[C@H]1c2n[nH]c(=O)c3cc(F)cc(c23)N[C@@H]1c1ccc(F)cc1 + C=CC(=O)N1CCN(c2nc(OCC3CCCN3C)nc3c2CCN(c2cccc4cccc(C)c24)C3)CC1CC#N
Second compound 0.0316 µM
  IC50: > 100 nM
Second compound 0.1 µM
  IC50: > 100 nM
Second compound 0.316 µM
  IC50: > 100 nM
Second compound 1 µM
  IC50: > 100 nM
Second compound 3.16 µM
  IC50: < 0.316 nM
Second compound 0.0316 µM, first compound 0.000316 µM
  viability, T/C: 111%
Second compound 0.0316 µM, first compound 0.001 µM
  viability, T/C: 114%
Second compound 0.0316 µM, first compound 0.00316 µM
  viability, T/C: 103%
[1]
  viability, T/C: 81.4%
[2]
  viability, T/C: 91.6%
[3]
  viability, T/C: 82.5%
Second compound 0.1 µM, first compound 0.000316 µM
  viability, T/C: 104%
Second compound 0.1 µM, first compound 0.001 µM
  viability, T/C: 96.9%
Second compound 0.1 µM, first compound 0.00316 µM
  viability, T/C: 86.9%
[4]
  viability, T/C: 85.5%
[5]
  viability, T/C: 81.3%
[6]
  viability, T/C: 77.6%
Second compound 0.316 µM, first compound 0.000316 µM
  viability, T/C: 99.6%
Second compound 0.316 µM, first compound 0.001 µM
  viability, T/C: 94.4%
Second compound 0.316 µM, first compound 0.00316 µM
  viability, T/C: 93.9%
[10]
  viability, T/C: 72.3%
[11]
  viability, T/C: 75%
[12]
  viability, T/C: 66.5%
Second compound 1 µM, first compound 0.000316 µM
  viability, T/C: 78.3%
Second compound 1 µM, first compound 0.001 µM
  viability, T/C: 82.7%
Second compound 1 µM, first compound 0.00316 µM
  viability, T/C: 78.5%
[16]
  viability, T/C: 69.2%
[17]
  viability, T/C: 67.4%
[18]
  viability, T/C: 62.7%
Second compound 3.16 µM, first compound 0.000316 µM
  viability, T/C: 15.8%
Second compound 3.16 µM, first compound 0.001 µM
  viability, T/C: 10.9%
Second compound 3.16 µM, first compound 0.00316 µM
  viability, T/C: 10.7%
[22]
  viability, T/C: 8.52%
[23]
  viability, T/C: 9.22%
[24]
  viability, T/C: 8.81%

## CC1(C)CCC(CN2CCN(c3ccc(C(=O)NS(=O)(=O)c4ccc(NCC5CCOCC5)c([N+](=O)[O-])c4)c(Oc4cnc5[nH]ccc5c4)c3)CC2)=C(c2ccc(Cl)cc2)C1 + C=CC(=O)N1CCN(c2nc(=O)n(-c3c(C)ccnc3C(C)C)c3nc(-c4c(O)cccc4F)c(F)cc23)C(C)C1
Second compound 0.1 µM
  IC50: 5910 nM
Second compound 0.316 µM
  IC50: 5020 nM
Second compound 1 µM
  IC50: 3690 nM
Second compound 3.16 µM
  IC50: 3460 nM
Second compound 10 µM
  IC50: 1940 nM
[5]
  viability, T/C: 100%
[6]
  viability, T/C: 116%
[7]
  viability, T/C: 106%
[8]
  viability, T/C: 109%
[9]
  viability, T/C: 92.3%
Second compound 0.1 µM, first compound 10 µM
  viability, T/C: 14.3%
[11]
  viability, T/C: 96%
[12]
  viability, T/C: 110%
[13]
  viability, T/C: 106%
[14]
  viability, T/C: 112%
[15]
  viability, T/C: 76.1%
Second compound 0.316 µM, first compound 10 µM
  viability, T/C: 11.1%
[17]
  viability, T/C: 114%
[18]
  viability, T/C: 104%
[19]
  viability, T/C: 113%
[20]
  viability, T/C: 111%
[21]
  viability, T/C: 56%
Second compound 1 µM, first compound 10 µM
  viability, T/C: 10.2%
[23]
  viability, T/C: 90.9%
[24]
  viability, T/C: 102%
[25]
  viability, T/C: 92.4%
[26]
  viability, T/C: 86.9%
[27]
  viability, T/C: 52.3%
Second compound 3.16 µM, first compound 10 µM
  viability, T/C: 22.5%
Second compound 10 µM, first compound 0.0316 µM
  viability, T/C: 75.9%
Second compound 10 µM, first compound 0.1 µM
  viability, T/C: 68.8%
Second compound 10 µM, first compound 0.316 µM
  viability, T/C: 72.9%
Second compound 10 µM, first compound 1 µM
  viability, T/C: 61.9%
Second compound 10 µM, first compound 3.16 µM
  viability, T/C: 40.9%
Second compound 10 µM, first compound 10 µM
  viability, T/C: 13.3%
